Experimental data as given in US20080287396A1, “Phosphonated Fluoroquinolones, Antibacterial Analogs Thereof, and Methods for the Prevention and Treatment of Bone and Joint Infections” (TARGANTA THERAPEUTICA INC., priority 2005, published 2008).

What was measured:
[1] = Bone powder binding, fluorometric detection; conditions: for Binding to bone (%) Fluorescence: 1 mg/ml compound, bone meal powder 10 mg/ml in PBS, 37° C., 1 h
Description: The ability of the example molecules to bind to bone powder was established in two parallel fashions, using either LC/MS or fluorometric detection. For LC/MS detection, a stock solution (5 mM) of the compound to be tested was added to 0.1M Tris-HCl buffer pH 7, 0.15M NaCl to reach a final concentration of 100 μM. Triplicate samples (1 mL) of the compound solutions were intensively shaken for 10 min with or without 25 mg of fresh or 20 mg of vacuum dried ground rat tibia bone. The samples were then centrifuged for 15 min at 10 000 g. The presence of unbound compound was measured by injection of 30 μL of each of the supernatants into an Agilent 1100™ LC/UV system. For fluorometric detection, an individual compound was dissolved in PBS or water (compound 52) and resuspended at a concentration of 1 mg/ml in a slurry of bone meal powder (Now Foods, Bloomingdale, Ill., USA) in PBS at 10 mg/ml. The suspension of drug/prodrug in bone meal powder was incubated at 37° C. for 1 h to allow for binding, and centrifuged at 13 000 rpm for 2 min, before recovering the supernatant. The bone meal powder pellet was then washed three times with 1 ml of PBS. All supernatants were saved and assessed for fluoroquinolone content by fluorescence measurements at excitation/emission wavelengths of 280/465 nm. The amount of fluoroquinolone was determined from standard curves generated for each experiment. Amount of drug/prodrug bound to bone powder was deduced from the difference between the input amount (typically 1 mg) and the amount recovered in the supernatants after binding. In all binding experiments, >99% of input drug was recovered in the supernatant for the parent drugs.

[2] = Regeneration of drug from bone powder-bound prodrug; type: in vitro ADME; conditions: for effect of the medium (presence or absence of serum) on regeneration rate: PBS vs serum
Description: Amounts of drug “regenerated” from the phosphonated parent prodrug were measured as follows. Washed bone powder-bound prodrugs from the above section were resuspended in 400 μL PBS or in 400 μL 50% (v/v in PBS) human or rat serum. […] Methanol (5× volume relative to supernatant) was added to each supernatant and the mixture was vortexed on a floor model vortex for 15 min to extract freed fluoroquinolone. The mixture was then centrifuged at 10 000 rpm for 15 min to pellet the insoluble material. The supernatant containing the extracted fluoroquinolone was recovered and evaporated to dryness in a speed vac. The dried pellets were resuspended in PBS and the amount of fluoroquinolone was determined by fluorescence measurements as described above. The percentage of drug regenerated was deduced from the difference between amount of bound prodrug and the amount of regenerated drug. The identity of regenerated drug was deduced by MIC determination; MICs of regenerated material matched those of parent drugs but not those of prodrugs.

[3] = system: Hela cells; assay: Cytotoxicity assay (MTS reduction); type: cell-based; conditions: concentrations up to 100 μM, 18 h, MTS reagent; data not shown
Description: Selected compounds were also tested for their ability to inhibit growth of mammalian cells so as to ascertain levels of cytotoxicity to the mammalian host, via an assay measuring the biological reduction of the inner salt of (3-(4,5-dimethylthiazol-2-yl)-5-(3-carboxymethoxyphenyl)-2-(4-sulfophenyl)-2H-tetrazolium (MTS reagent). Assays were performed in 96-well microtiter plates. Briefly, compounds at 100, 50, 25, and 12.5 μM concentrations were incubated with 2×10^4 Hela cells per well in Dulbecco's Modified Eagle Medium (Invitrogen Corporation) containing 1% Bovine Growth Serum (HyClone) for 18 h at 37° C. under 5% CO2.

[4] = system: S. aureus ATCC 13709; assay: Prophylactic model of bone infection in rats; type: in vivo, rat; conditions: for prophylactic effect in rat model of bone infection, in words: Table 4 and FIGS. 6-8, doses as in Table 4
Description: To determine the activity in vivo of bisphosphonated prodrugs of fluoroquinolones, compounds 52 and 107, derivatives of parent compounds moxifloxacin 3 (for 52), and compounds 39, 44, 49, 54, 121, 129, 141, 145, 149, derivatives of parent compound gatifloxacin 15, were used in a prophylactic model for infection. Specifically, S. aureus ATCC 13709 cells were grown overnight at 37° C. in brain heart infusion broth (BHIB). Cells were subcultured into fresh BHIB and incubated for 4 to 5 h at 37° C. The cells were washed twice with phosphate-buffered saline (PBS) and resuspended in BHIB supplemented with 10% (vol./vol.) fetal bovine serum at a density of approximately 10^10 colony forming units (CFU)/ml (based upon turbidimetry). The suspension was aliquoted and a portion was used to check the CFU count. The culture was stored frozen (−80° C.) and was used without subculture. For use as an inoculum the culture was thawed, diluted in PBS and kept in an ice bath until it was used.
Animals were infected as described by O'Reilly et al. (Antimicrobial Agents and Chemotherapy (1992), 36(12): 2693-97) to generate the bone infection. Female CD rats (age, 57 to 70 days; n=5/group; Charles River, St-Constant, Canada) were anaesthetized by isofluorane before and during the surgery. Following complete induction of anesthesia, the rat was placed ventral side up and hair was shaved from the surgical site. The skin over the leg was cleaned and disinfected (proviodine-ethanol 70%). A longitudinal incision below the knee joint was made in the sagital plane. The incision was made over the bone below the “knee joint” (tibia head or condyle) but not completely extending to the ankle. A high speed drill fitted with a 2 mm bulb bit was used to drill a hole into the medullar cavity of the tibia. Rats were injected intra-tibially with 0.05 ml 5% sodium morrhuate (sclerosing agent) and then with 0.05 ml of S. aureus suspension (ca. 5×10^5 CFU/rat). The hole was sealed by applying a small amount of dry dental cement which immediately absorbs fluids and adheres to the site. The wound was closed using 3 metal skin clips. Moxifloxacin 3 (as a positive control) was injected once at 10 mg/kg intravenously 1 h postinfection in saline, while the fluoroquinolone prodrugs (prepared in 0.9% saline) were injected as a single intravenous bolus dose at different time points prior to the infection. For comparison, the parent drug (moxifloxacin 3 or gatifloxacin 15) was also injected intravenously once at a molar equivalent dose at the same time point prior the infection.
Infected rats were sacrificed by CO2 asphyxiation 24 h postinfection to monitor the bacterial CFU count. Infected tibiae were removed, dissected free of soft tissue, and weighed. The bones were ground using a metal ball mill, resuspended in 5 ml 0.9% NaCl, serially diluted and processed for quantitative cultures. For compounds 39, 44, 49, 54, 141, 145, 149, 1 ml of the 0.9% NaCl solution was added to 50 mg of charcoal before serial dilutions. Treatment efficacies were measured in terms of Log viable bacteria (Log CFU per gram of bone). The results obtained for each group of rats were evaluated by calculating the mean Log CFU and standard deviation. The limit of detection is 2 Log CFU/g of bone. Statistical comparisons of viable bacterial counts for the different treated and untreated groups were performed with Dunnett's multiple-comparison test. Differences were considered significant when the P value was <0.05 when comparing treated infected animals to the untreated infected ones.

| Compound | Binding to bone (%) Fluorescence [1] | effect of the medium (presence or absence of serum) on regeneration rate [2] | cytotoxicity [3] | also measured |
| --- | --- | --- | --- | --- |
| COc1c(N2C[C@@H]3CCCN[C@@H]3C2)c(F)cc2c(=O)c(C(=O)Oc3ccc(C(P(=O)(O)O)P(=O)(O)O)cc3)cn(C3CC3)c12 [Compound 85, 4-(Bisphosphonomethyl)phenyl 1-cyclopropyl-6-fluoro-1,4-dihydro-7-((4aS,7aS)-octahydropyrrolo[3,4-b]pyridin-6-yl)-8-methoxy-4-oxoquinoline-3-carboxylate] | 98.9% | fairly similar rates |  |  |
| COc1c(N2C[C@@H]3CCCN(CC(P(=O)(OC)OC)P(=O)(OC)OC)[C@@H]3C2)c(F)cc2c(=O)c(C(=O)O)cn(C3CC3)c12 [Compound 4, 7-((4aS,7aS)-1-(2,2-bis(dimethylphosphono)ethyl)-octahydropyrrolo[3,4-b]pyridin-6-yl)-1-cyclopropyl-6-fluoro-1,4-dihydro-8-methoxy-4-oxoquinoline-3-carboxylic acid] |  |  | no signs of any cytotoxicity |  |
| O=C(O)c1cn(C2CC2)c2cc(N3CCN(CC(P(=O)(O)O)P(=O)(O)O)CC3)c(F)cc2c1=O [Compound 8, 7-(4-(2,2-bisphosphonoethyl)piperazin-1-yl)-1-cyclopropyl-6-fluoro-1,4-dihydro-4-oxoquinoline-3-carboxylic acid] | 99.6% |  | no signs of any cytotoxicity | drug released from the bone matter after 24 h, in words ([2]; 24 h, medium not stated): not measurable amount of drug released |
| COc1c(N2CCNC(C)C2)c(F)cc2c(=O)c(C(=O)OCC(=O)N(C)C(P(=O)(O)O)P(=O)(O)O)cn(C3CC3)c12 (stereo not shown) [Compound 82, (N-Methyl-1,1-Bisphosphonomethylcarbamoyl)methyl 7-(3-methylpiperazin-1-yl)-1-cyclopropyl-6-fluoro-1,4-dihydro-8-methoxy-4-oxoquinoline-3-carboxylate] | 90.4% | fairly similar rates |  |  |
| COc1c(N2C[C@@H]3CCCN[C@@H]3C2)c(F)cc2c(=O)c(C(=O)OCC(=O)Nc3ccc(C(P(=O)(O)O)P(=O)(O)O)cc3)cn(C3CC3)c12 [Compound 73, (4-Bisphosphonomethylphenylcarbamoyl)methyl 1-cyclopropyl-6-fluoro-1,4-dihydro-7-((4aS,7aS)-octahydropyrrolo[3,4-b]pyridin-6-yl)-8-methoxy-4-oxoquinoline-3-carboxylate] | 99.0% | fairly similar rates |  |  |
| COP(=O)(OC)C(CN1CCN(c2cc3c(cc2F)c(=O)c(C(=O)O)cn3C2CC2)CC1)P(=O)(OC)OC [Compound 7, 7-(4-(2,2-bis(dimethylphosphono)ethyl)piperazin-1-yl)-1-cyclopropyl-6-fluoro-1,4-dihydro-4-oxoquinoline-3-carboxylic acid] |  |  | no signs of any cytotoxicity |  |
| CCOP(=O)(OCC)C(NC(=O)COC(=O)c1cn(C2CC2)c2c(OC)c(N3CCN(C(=O)OC(C)(C)C)C(C)C3)c(F)cc2c1=O)P(=O)(OCC)OCC (stereo not shown) [Compound 53, (1,1-Bis(diethylphosphono)methylcarbamoyl)methyl 7-(4-(tert-butoxycarbonyl)-3-methylpiperazin-1-yl)-1-cyclopropyl-6-fluoro-1,4-dihydro-8-methoxy-4-oxoquinoline-3-carboxylate] |  |  | no signs of any cytotoxicity |  |
| COC(=O)c1cn(C2CC2)c2c(OC)c(N3C[C@@H]4CCCN[C@@H]4C3)c(F)cc2c1=O [Compound 154, Methyl 1-cyclopropyl-6-fluoro-1,4-dihydro-7-((4aS,7aS)-octahydropyrrolo[3,4-b]pyridin-6-yl)-8-methoxy-4-oxoquinoline-3-carboxylate] |  |  | no signs of any cytotoxicity |  |
| COc1c(N2CCNC(C)C2)c(F)cc2c(=O)c(C(=O)Oc3ccc(C(P(=O)(O)O)P(=O)(O)O)cc3)cn(C3CC3)c12 (stereo not shown) [Compound 87, 4-(Bisphosphonomethyl)phenyl 7-(3-methylpiperazin-1-yl)-1-cyclopropyl-6-fluoro-1,4-dihydro-8-methoxy-4-oxoquinoline-3-carboxylate] | 79.2% | fairly similar rates |  |  |
| COc1c(N2CCN(C(=O)CC(C)(C)c3cc(P(=O)(O)CP(=O)(O)O)ccc3OC(=O)C(C)C)C(C)C2)c(F)cc2c(=O)c(C(=O)O)cn(C3CC3)c12 (stereo not shown) [Compound 145, 7-(4-(3-(2-(2,2-dimethylacetoxy)-5-((phosphonomethyl)phosphonoyl)phenyl)-3-methylbutanoyl)-3-methylpiperazin-1-yl)-1-cyclopropyl-6-fluoro-1,4-dihydro-8-methoxy-4-oxoquinoline-3-carboxylic acid] | 76.0% |  |  | binding to osseous matter, in words ([1]; bisphosphonates bearing three hydroxy groups): less effectively bound; Measured bacterial titer (Log CFU/g of bone) Test compound ([4]; 47.2 mg/kg IV, 2 days prior to infection): 4.69 ± 0.78 Log CFU/g of bone; prophylactic effect in rat model of bone infection, in words [4]: unable to produce a positive result in vivo |
| COc1c(N2C[C@@H]3CCCN(C(=O)CC(P(=O)(O)O)P(=O)(O)O)[C@@H]3C2)c(F)cc2c(=O)c(C(=O)O)cn(C3CC3)c12 [Compound 107, 7-((4aS,7aS)-1-(3,3-bisphosphonopropionyl)-octahydropyrrolo[3,4-b]pyridin-6-yl)-1-cyclopropyl-6-fluoro-1,4-dihydro-8-methoxy-4-oxoquinoline-3-carboxylic acid] | 98.2% |  |  | Measured bacterial titer (Log CFU/g of bone) Test compound ([4]; 19.4 mg/kg IV, 1 day prior to infection): 5.40 ± 0.93 Log CFU/g of bone; prophylactic effect in rat model of bone infection, in words [4]: lack of effect |
